# From the supplement of paper PMC10307832
# Key:
# [1] = compound: CC(C)(C)c1cc(NC(=O)Nc2ccc(-c3cn4c(n3)sc3cc(OCCN5CCOCC5)ccc34)cc2)no1 [Quizartinib] + NC(=O)Nc1cc(-c2cccc(F)c2)sc1C(=O)N[C@H]1CCCNC1 [AZD7762] (partner 0.2 µM); test: relative viability (nuclei count vs DMSO), 5 days (fraction); higher = more cells survive
# In short: (§1)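 Lung cancer cell lines were seeded in 1536-well plates and dosed by pin tool the next day, with either a single drug or a fixed anchor-drug dose combined with five library-drug doses (not always all listed) spaced in √10 steps. Five days later, one step fixed the cells and stained their nuclei (final 0.05% Triton X-100, 1% formaldehyde, 1 ug/ml Hoechst), and nuclei were counted on 4× images. Relative viability is the nuclei count in treated wells divided by the count in vehicle wells, and each value is the median of duplicate plates.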
# [2] = compound: CC(C)(C)c1cc(NC(=O)Nc2ccc(-c3cn4c(n3)sc3cc(OCCN5CCOCC5)ccc34)cc2)no1 [Quizartinib] + CC(=O)Nc1cccc(-n2c(=O)n(C3CC3)c(=O)c3c(Nc4ccc(I)cc4F)n(C)c(=O)c(C)c32)c1 [Trametinib] (partner 0.02 µM); test: as above
# In short: as §1
Cell Line,relative viability ([1]; first compound 0.001 µM),relative viability ([1]; first compound 0.003162 µM),relative viability ([1]; first compound 0.01 µM),relative viability ([1]; first compound 0.03162 µM),relative viability ([1]; first compound 0.1 µM),relative viability ([2]; first compound 0.001 µM),relative viability ([2]; first compound 0.003162 µM),relative viability ([2]; first compound 0.01 µM),relative viability ([2]; first compound 0.03162 µM),relative viability ([2]; first compound 0.1 µM)
NCI-H2342,0.505,0.637,0.471,0.544,0.518,0.799,0.83,0.884,0.9,0.764
NCI-H1944,0.493,0.414,0.48,0.57,0.527,0.453,0.405,0.419,0.448,0.313
HCC-366,0.272,0.181,0.285,0.119,0.199,0.314,0.383,0.294,0.326,0.346
NCI-H522,0.849,0.775,0.675,0.871,0.778,0.688,0.741,0.796,0.53,0.727
NCI-H1734,0.736,0.54,0.603,0.522,0.628,0.604,0.64,0.78,0.571,0.698
201T,0.611,0.573,0.653,0.61,0.646,0.595,0.696,0.755,0.708,0.742
NCI-H1792,0.547,0.654,0.691,0.496,0.604,0.374,0.429,0.412,0.457,0.293
PC-3 [JPC-3],0.545,0.811,0.781,0.75,0.766,0.672,0.754,0.705,0.663,0.643
HCC-827,0.344,0.196,–,0.177,0.247,0.535,0.531,–,0.509,0.572
LXF-289,0.816,1.08,1.09,1.11,1.12,0.613,0.692,0.709,0.702,0.622
NCI-H520,–,–,–,–,–,–,0.465,0.673,0.637,0.486
RERF-LC-KJ,0.898,0.954,0.945,0.98,0.987,0.797,0.849,0.942,0.62,0.844
ABC-1,0.717,0.783,0.784,0.913,0.827,–,–,–,–,–
NCI-H3122,0.964,1.02,0.971,1.02,0.962,0.21,0.276,0.286,0.275,0.219
HARA,0.401,0.193,0.515,0.26,0.334,0.508,0.715,0.626,0.555,0.459
SK-LU-1,–,–,–,–,–,0.464,0.372,0.515,0.394,0.434
LK-2,0.456,0.405,0.474,0.244,0.293,0.796,0.671,0.801,0.765,0.789
NCI-H596,1.12,1.07,1.02,1.04,1.32,0.794,0.695,0.805,0.77,0.8
